# Test results: US10618937B2, “Method of treating Alzheimer's disease” (INDUSTRY-ACADEMIC COOPERATION FOUNDATION GYEONGSANG …, priority 2016, dated 2020)
# Columns and labels:
# normal mouse = test: Morris water maze test in normal (wild type) mice; assay type: in vivo; settings: normal mouse treated with peptide, IP
# Protocol: Male C57BL/6J wild type mice and double transgenic B6.Cg-Tg (APPswe, PSENdE9) 85Dbo Mmjax (APP/PS1) AD-model mice were obtained from Jackson Laboratories (Bar Harbor, Me., USA). The brains of the double transfected mice express Swedish mutation-containing chimeric mouse-human amyloid precursor protein (Mo/HuAPP695swe) and mutant human presenilin 1 protein (PS1-dE9). The mice were fed with an unlimited supply of food and water at an animal breeding ground of a university at a temperature of 23° C., at the relative humidity of 60±10% and in the black and light cycle of 12 h/12 h. […]
# The Morris Underwater Maze Test System was constructed as a circular water tank with a diameter of 100 cm and a height of 40 cm containing 15.5 cm depth of water (temperature of 23±1° C.) which was opaque with white ink added. […] The delay time for escaping from the water maze (the time to find the hidden escape platform) was calculated for each trial. […] For the probe experiment, the platform was removed, each mouse was allowed to freely swim for 60 seconds, the amount of time the mouse spent in the target quadrant was measured, and the number of platform positions the mouse passed by (where the platform was located during the hidden platform training). […] All data were recorded by using video-tracking software (SMART, Panlab Harward Apparatus, Bioscience Company, Holliston, Mass., USA).
# [1] = test system: APP-transfected HT-22 cells; test: Western blot analysis of proteins isolated from APP-transfected HT-22 cells; assay type: cell-based; settings: 1, 5, 10 or 20 μM
# Protocol: SH-SY5Y cells and HT-22 cells were inoculated into a culture flask containing the medium, and cultured until reaching the confluency of 70% to 75%. The pCAX vector with the APPswe/ind gene was transfected for 48 hours by using Lipofectamine 3000 (Life technologies) according to the manufacturers instructions.
# Protein concentrations were measured by using a BIORAD protein assay kit (BIORAD LABORATORIES, CA, USA). Equal amounts of protein (15 to 25 μg) were electrophoresed under the same experimental conditions using 4 to 12% BLOT™ minigel and MES SDS electrophoresis buffer (running buffer) 1×(NOVEX, LIFE TECHNOLOGIES, Kiryat Shmona, Israel), and a broad range prestained protein marker (GANGNAM STAIN™, Intron Biotechnology) was used as the control for the molecular size. To reduce nonspecific binding, the membranes used were blocked with 5% (w/v) skim milk and reacted with a primary antibody (a 1:1000 dilution) overnight at 4° C. After an appropriate reaction with a horseradish peroxidase (HRP)-binding secondary antibody, proteins were detected by using an ECL detection reagent (AMERSHAM PHARMECIA BIOTECH, Uppsala, Sweden) according to the manufacturer's instructions. The X-ray film was scanned and the optical density of the band was analyzed using a densitometry using a computer-based Sigma Gel program, version 1.0 (SPSS, Chicago, Ill., USA).
# For use as the primary antibody, anti-amyloid β (Aβ), anti-APP, anti-AdipoR1 (Adiponectin receptor 1), anti-phospho-AMPK, anti-SNAP-25 (Synaptosomal-Associated Protein 25), anti-SAP-102, anti-Syanpatophysin, phospho-Tau (Ser 413), anti-p-mTOR, anti-p-ULK1, and anti-β-actin were used.
substance,measurement,setting,value
RGPCG (adiponectin receptor-activating peptide) [5AA1],latency (time to find the hidden escape platform),normal mouse,less than 10 seconds
same,expression of AdipoR1 protein,[1],expressed more
same,expression of p-AMPK protein,[1],expressed more
same,expression level of amyloid β (Aβ),[1]; normalized with β-actin,significantly reduced
same,expression level of β-amyloid precursor protein (APP),[1]; normalized with β-actin,significantly reduced
